Consider 20 molecules from patent US20250368633A1, “AZEPINE FUSED RING COMPOUND AS RIPK1 INHIBITOR AND USE THEREOF” (ARTIVILA BIOPHARMA, priority 2022, published 2025).

Some results are limits rather than exact numbers.

In test [1] the target is T1, RIPK1 kinase (Homo sapiens, UniProt Q13546).
T1 construct: purchased Promega VA7593
T1 sequence (Q13546 1-671): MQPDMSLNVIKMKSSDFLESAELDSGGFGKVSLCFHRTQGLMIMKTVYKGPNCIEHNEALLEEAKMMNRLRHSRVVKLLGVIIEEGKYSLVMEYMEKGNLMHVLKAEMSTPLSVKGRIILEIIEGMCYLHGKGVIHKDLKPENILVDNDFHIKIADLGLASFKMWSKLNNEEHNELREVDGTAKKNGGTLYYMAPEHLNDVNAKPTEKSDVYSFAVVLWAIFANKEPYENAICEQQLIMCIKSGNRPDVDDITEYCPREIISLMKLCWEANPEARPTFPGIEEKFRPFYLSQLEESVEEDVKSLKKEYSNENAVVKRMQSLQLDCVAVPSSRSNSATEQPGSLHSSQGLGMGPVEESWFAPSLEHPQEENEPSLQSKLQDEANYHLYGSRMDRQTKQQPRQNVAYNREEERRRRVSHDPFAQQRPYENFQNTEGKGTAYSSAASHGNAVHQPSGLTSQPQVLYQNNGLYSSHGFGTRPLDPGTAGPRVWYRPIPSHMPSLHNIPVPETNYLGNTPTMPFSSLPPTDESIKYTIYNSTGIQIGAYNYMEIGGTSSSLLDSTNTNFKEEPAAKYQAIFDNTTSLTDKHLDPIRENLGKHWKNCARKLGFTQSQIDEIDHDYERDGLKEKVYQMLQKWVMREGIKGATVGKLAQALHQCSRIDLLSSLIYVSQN
As to the kind of experiment: In vitro RIPK1 kinase activity assay (ADP-Glo), inhibition by compounds at 1 μM. Type of test: biochemical. The settings on record: compound 1 μM; ATP 10 μM; MBP substrate 100 μg/mL; read-out: RIPK1 kinase activity inhibition rate range. Summed up:
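Read by ADP-Glo chemiluminescence as percent inhibition: RIPK1 kinase, 15-min room-temperature compound preincubation, then 1-h reaction with MBP (100 μg/mL final) and ATP (10 μM final). Enzyme level was set by titration.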

The subject of test [2] is U937 cells. The test is described as follows: Inhibition rate of compound (1 μM) on necroptosis of U937 cells (TSZ-induced, CellTiter-Glo). The settings on record: TSZ (hTNF-α, SM-164, Z-VAD-FMK) 20 hours. Type of test: cell-based. The gist of the method:
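Percent inhibition comes from ATP luminescence (CellTiter-Glo), referenced to wells without TSZ and wells with TSZ alone. The compound was added to U937 cells 15 min ahead of a TNF-α/SM-164/Z-VAD-FMK mix, followed by 20 h culture at 37° C, 5% CO2.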

For `CN1C(=O)[C@@H](NC(=O)C(=O)NCCc2cc(F)cc(F)c2)COc2ccc(C#CCCO)cc21` [Example 36, (S)—N^1-(3,5-difluorophenethyl)-N^2-(7-(4-hydroxybut-1-yn-1-yl)-5-methyl-4-oxo-2,3,4,5-tetrahydrobenzo[b][1,4]oxazepin-3-yl)oxalamide], the inhibition at 1 µM in test [1] was no less than 75%. Moreover, the “Inhibition rate range of compounds (1 μM) on U937 cell necroptosis” value (“Inhibition rate range of compounds” below) in test [2] is listed as “A (A: ≥90%)”.

As to `CN1C(=O)[C@@H](NC(=O)C(=O)NCc2cccc(F)c2)COc2ccc(C#CCCO)cc21` [Example 39, (S)—N^1-(3-fluorobenzyl)-N^2-(7-(4-hydroxybut-1-yn-1-yl)-5-methyl-4-oxo-2,3,4,5-tetrahydrobenzo[b][1,4]oxazepin-3-yl)oxalamide], the inhibition at 1 µM in test [1] is no less than 75%. Moreover, in test [2], the “Inhibition rate range of compounds” value is on record as “A (A: ≥90%)”.

Turning to `CN1C(=O)[C@@H](NC(=O)C(=O)NCc2ccc(F)cc2)COc2ccc(C#CCCO)cc21` [Example 40, (S)—N^1-(4-fluorobenzyl)-N^2-(7-(4-hydroxybut-1-yn-1-yl)-5-methyl-4-oxo-2,3,4,5-tetrahydrobenzo[b][1,4]oxazepin-3-yl)oxalamide], the inhibition at 1 µM in test [1] was no less than 75%. For the same molecule, in test [2], the “Inhibition rate range of compounds” value is reported as “A (A: ≥90%)”.

`CN1C(=O)[C@@H](NC(=O)C(=O)NCCc2cccc(F)c2)COc2ccc(C#CC(C)(C)O)cc21` [Example 42, (S)—N^1-(3-fluorophenethyl)-N^2-(7-(3-hydroxy-3-methylbut-1-yn-1-yl)-5-methyl-4-oxo-2,3,4,5-tetrahydrobenzo[b][1,4]oxazepin-3-yl)oxalamide]: the inhibition at 1 µM in test [1] is no less than 75%. Besides, in test [2], the “Inhibition rate range of compounds” value was “A (A: ≥90%)”.

With `CN1C(=O)[C@@H](NC(=O)C(=O)NCCc2ccccc2)COc2ccc(C#CC3(O)COC3)cc21` [Example 43, (S)—N^1-(7-((3-hydroxyoxetan-3-yl)ethynyl)-5-methyl-4-oxo-2,3,4,5-tetrahydrobenzo[b][1,4]oxazepin-3-yl)-N^2-phenethyloxalamide], the inhibition at 1 µM in test [1] was no less than 75%. In addition, in test [2], the “Inhibition rate range of compounds” value was “A (A: ≥90%)”.

Take `CN1C(=O)[C@@H](NC(=O)C(=O)NCCc2ccccc2)COc2ccc(C#CC3(O)CCCCC3)cc21` [Example 44, (S)—N^1-(7-((1-hydroxycyclohexyl)ethynyl)-5-methyl-4-oxo-2,3,4,5-tetrahydrobenzo[b][1,4]oxazepin-3-yl)-N^2-phenethyloxalamide]: the inhibition at 1 µM in test [1] is 50 to 74%. For the same molecule, the “Inhibition rate range of compounds” value in test [2] is “A (A: ≥90%)”.

For the molecule `C/C(C#Cc1ccc2c(c1)N(C)C(=O)[C@@H](NC(=O)C(=O)NCCc1ccccc1)CO2)=C/CO` [Example 45, (S,Z)-N^1-(7-(5-hydroxy-3-methylpent-3-en-1-yn-1-yl)-5-methyl-4-oxo-2,3,4,5-tetrahydrobenzo[b][1,4]oxazepin-3-yl)-N^2-phenethyloxalamide], the inhibition at 1 µM in test [1] was no less than 75%. In addition, the “Inhibition rate range of compounds” value in test [2] is given as “A (A: ≥90%)”.

Turning to `CN1C(=O)[C@@H](NC(=O)C(=O)NCCc2ccccc2)COc2ccc(C#CCN3CCC(O)C3)cc21` (stereo partly drawn) [Example 46, N^1-((3S)-7-(3-(3-hydroxypyrrolidin-1-yl)prop-1-yn-1-yl)-5-methyl-4-oxo-2,3,4,5-tetrahydrobenzo[b][1,4]oxazepin-3-yl)-N^2-phenethyloxalamide], the inhibition at 1 µM in test [1] was no less than 75%. Besides, the “Inhibition rate range of compounds” value in test [2] was “A (A: ≥90%)”.

`CN1C(=O)[C@@H](NC(=O)C(=O)NCCc2ccccc2)COc2ccc(C#CCN3CCC(=O)CC3)cc21` [Example 47, (S)—N^1-(5-methyl-4-oxo-7-(3-(4-oxopiperidin-1-yl)prop-1-yn-1-yl)-2,3,4,5-tetrahydrobenzo[b][1,4]oxazepin-3-yl)-N^2-phenethyloxalamide]: the inhibition at 1 µM in test [1] is no less than 75%. Further, in test [2], the “Inhibition rate range of compounds” value is “A (A: ≥90%)”.

For the molecule `CN1C(=O)[C@@H](NC(=O)C(=O)NCCc2ccccc2)COc2ccc(C#CCN3CCOCC3)cc21` [Example 48, (S)—N^1-(5-methyl-7-(3-morpholinoprop-1-yn-1-yl)-4-oxo-2,3,4,5-tetrahydrobenzo[b][1,4]oxazepin-3-yl)-N^2-phenethyloxalamide], the inhibition at 1 µM in test [1] was 50 to 74%. In addition, the “Inhibition rate range of compounds” value in test [2] is recorded as “A (A: ≥90%)”.

In the case of `CN1C(=O)[C@@H](NC(=O)C(=O)NCCc2ccccc2)COc2ccc(C#CCCN)cc21` [Example 50, (S)—N^1-(7-(4-aminobut-1-yn-1-yl)-5-methyl-4-oxo-2,3,4,5-tetrahydrobenzo[b][1,4]oxazepin-3-yl)-N^2-phenethyloxalamide], the inhibition at 1 µM in test [1] was no less than 75%. Further, in test [2], the “Inhibition rate range of compounds” value is “A (A: ≥90%)”.

In the case of `CN1C(=O)[C@@H](NC(=O)C(=O)NCCc2ccccc2)COc2ccc(C#CCCNS(C)(=O)=O)cc21` [Example 51, (S)—N^1-(5-methyl-7-(4-(methylsulfonamido)but-1-yn-1-yl)-4-oxo-2,3,4,5-tetrahydrobenzo[b][1,4]oxazepin-3-yl)-N^2-phenethyloxalamide], the inhibition at 1 µM in test [1] was in the range of 25 to 49%. Also, the “Inhibition rate range of compounds” value in test [2] is “A (A: ≥90%)”.

Regarding `COCC#Cc1ccc2c(c1)N(C)C(=O)[C@@H](NC(=O)C(=O)NCCc1ccccc1)CO2` [Example 52, (S)—N^1-(7-(3-methoxyprop-1-yn-1-yl)-5-methyl-4-oxo-2,3,4,5-tetrahydrobenzo[b][1,4]oxazepin-3-yl)-N^2-phenethyloxalamide], the inhibition at 1 µM in test [1] is no less than 75%. The “Inhibition rate range of compounds” value in test [2] was “A (A: ≥90%)”.

In the case of `CN1C(=O)C(NC(=O)C(=O)NCCc2ccccc2)CCc2ccc(Br)cc21` (stereo not shown) [Example 61, N^1-(8-bromo-1-methyl-2-oxo-2,3,4,5-tetrahydro-1H-benzo[b]azepin-3-yl)-N^2-phenethyloxalamide], in test [1], the inhibition at 1 µM is no less than 75%. Further, the “Inhibition rate range of compounds” value in test [2] is on record as “A (A: ≥90%)”.

With `CN1C(=O)C(NC(=O)C(=O)NCCc2ccccc2)CCc2ccc(C#CC3CC3)cc21` (stereo not shown) [Example 62, N^1-(8-(cyclopropylethynyl)-1-methyl-2-oxo-2,3,4,5-tetrahydro-1H-benzo[b]azepin-3-yl)-N^2-phenethyloxalamide], the inhibition at 1 µM in test [1] was no less than 75%. Moreover, the “Inhibition rate range of compounds” value in test [2] is “A (A: ≥90%)”.

Turning to `CN1C(=O)C(NC(=O)C(=O)NCCc2ccccc2)CCc2ccc(C#CCCO)cc21` (stereo not shown) [Example 65, N^1-(8-(4-hydroxybut-1-yn-1-yl)-1-methyl-2-oxo-2,3,4,5-tetrahydro-1H-benzo[b]azepin-3-yl)-N^2-phenethyloxalamide], in test [1], the inhibition at 1 µM is no less than 75%. Moreover, in test [2], the “Inhibition rate range of compounds” value is “A (A: ≥90%)”.

For the molecule `CN1C(=O)C(NC(=O)C(=O)NCCc2ccccc2)CCc2ccc(C#CC3CCNCC3)cc21` (stereo not shown) [Example 66, N^1-(1-methyl-2-oxo-8-(piperidin-4-ylethynyl)-2,3,4,5-tetrahydro-1H-benzo[b]azepin-3-yl)-N^2-phenethyloxalamide], the inhibition at 1 µM in test [1] was in the range of 50 to 74%. In addition, the “Inhibition rate range of compounds” value in test [2] is on record as “A (A: ≥90%)”.

Turning to `CN1C(=O)[C@@H](NC(=O)C(=O)NCCc2ccccc2)COc2ccc(C#CC3CCN(CC#N)CC3)cc21` [Example 74, (S)—N^1-(7-((1-(cyanomethyl)piperidin-4-yl)ethynyl)-5-methyl-4-oxo-2,3,4,5-tetrahydrobenzo[b][1, 4]oxazepin-3-yl)-N^2-phenethyloxalamide], in test [1], the inhibition at 1 µM is 50 to 74%. For the same molecule, in test [2], the “Inhibition rate range of compounds” value was “A (A: ≥90%)”.

As to `CN1C(=O)[C@@H](NC(=O)C(=O)NCCc2ccccc2)COc2ccc(C#CC3COC3)cc21` [Example 76, (S)—N^1-(5-methyl-7-(oxetan-3-ylethynyl)-4-oxo-2,3,4,5-tetrahydrobenzo[b][1,4]oxazepin-3-yl)-N^2-phenethyloxalamide], the inhibition at 1 µM in test [1] is 50 to 74%. Further, in test [2], the “Inhibition rate range of compounds” value is “A (A: ≥90%)”.

In the case of `CN1C(=O)[C@H](NC(=O)C(=O)NCCc2ccccc2)COc2ccc(C#CC3(O)COC3)cc21` [Example 77, (R)—N^1-(7-((3-hydroxyoxetan-3-yl)ethynyl)-5-methyl-4-oxo-2,3,4,5-tetrahydrobenzo[b][1,4]oxazepin-3-yl)-N^2-phenethyloxalamide], in test [1], the inhibition at 1 µM was in the range of 50 to 74%. For the same molecule, the “Inhibition rate range of compounds” value in test [2] is recorded as “A (A: ≥90%)”.
